The text below walks through data of patent publication US6653306B1, “Epoxy-steroidal aldosterone antagonist and angiotensin II antagonist combination therapy” (G.D. Searle & Co., priority 1995, dated 2003).

Usually IC50 stands for the point on the concentration scale where inhibition reaches its midpoint. Low values mean greater potency, high ones weaker potency. By inhibition is commonly meant how much of the control response was suppressed.

For test [1], the system named is rabbit aortic rings. The test can be described thus: Assay B: In vitro vascular smooth muscle response for AII (antagonist activity, pA2). Particulars: Oryctolagus cuniculus, in vitro vascular smooth muscle response; two values per cell separated by / are separate determinations; read-out: Assay B pA2 (converted). Format: cell-based. The protocol: Assay B: In Vitro Vascular Smooth Muscle-response for AII
The compounds of the invention were tested for antagonist activity in rabbit aortic rings. Male New Zealand white rabbits (2-2.5 kg) were sacrificed using an overdose of pentobarbital and exsanguinated via the carotid arteries. The thoracic aorta was removed, cleaned of adherent fat and connective tissue and then cut into 3-mm ring segments. The endothelium was removed from the rings by gently sliding a rolled-up piece of filter paper into the vessel lumen. The rings were then mounted in a water-jacketed tissue bath, maintained at 37° C., between moveable and fixed ends of a stainless steel wire with the moveable end attached to an FT03 Grass transducer coupled to a Model 7D Grass Polygraph for recording isometric force responses. The bath was filled with 20 ml of oxygenated (95% oxygen/5% carbon dioxide) Krebs solution of the following composition (mM): 130 NaCl, […], 15 KCl, 1.2 NaH2PO4, 1.2 MgSO4, 2.5 CaCl2, and 11.4 glucose. The preparations were equilibrated for one hour before approximately one gram of passive tension was placed on the rings. Angiotensin II concentration-response curves were then recorded (3×10^−10 to 1×10^−5 M). Each concentration of AII was allowed to elicit its maximal contraction, and then AII was washed out repeatedly for 30 minutes before rechallenging with a higher concentration of AII. Aorta rings were exposed to the test antagonist at […] for 5 minutes before challenging with AII. Adjacent segments of the same aorta ring were used for all concentration-response curves in the presence or absence of the test antagonist. The effectiveness of the test compound was expressed in terms of pA2 values and were calculated according to H. O. Schild [Br. J. Pharmacol, Chemother., 2,189-206 (1947)]. The pA2 value is the concentration of the antagonist which increases the EC50 value for AII by a factor of two. Each test antagonist was evaluated in aorta rings from two rabbits.

For test [2], the target named is angiotensin II AT1 receptor. The test can be described thus: Assay A: Angiotensin II binding activity (125I-AII displacement, rat uterine membrane preparation). The protocol:
Assay A: Antiotensin II Binding Activity
Compounds of the invention were tested for ability to bind to the smooth muscle angiotensin II receptor using a rat uterine membrane preparation. […] Rat uterine membranes were prepared from fresh tissue. All procedures were carried out at 4° C. Uteri were stripped of fat and homogenized in phosphate-buffered saline at pH 7.4 containing 5 mM EDTA. The homogenate was centrifuged at 1500×g for 20 min., and the supernatant was recentrifuged at 100,000×g for 60 min. The pellet was resuspended in buffer consisting of 2 mM EDTA and 50 mM Tris-HCl (pH 7.5) to a final protein concentration of 4 mg/ml. […] The reaction was initiated by the addition of membrane protein and the mixture was incubated at 25° C. for 60 min. The incubation was terminated with ice-cold 50 mM Tris-HCl (pH 7.5) and the mixture was filtered to separate membrane-bound labelled peptide from the free ligand. The incubation tube and filter were washed with ice-cold buffer. Filters were assayed for radioactivity in a Micromedic gamma counter.
Nonspecific binding was defined as binding in the presence of 10 μM of unlabelled AII. Specific binding was calculated as total binding minus nonspecific binding. […] Binding data were analyzed by a nonlinear least-squares curve fitting program.

The subject of test [3] is pressor response to AII. Briefly: Assay C: In vivo intragastric pressor assay response for AII antagonists. Also on record: species or system rat. To be noted: intragastric, or intraduodenal for examples listed; for inhibition at 3 mg/kg: Rattus norvegicus; for inhibition at 3 mg/kg / Assay C Duration: dose 3 mg/kg. As for the experimental part:
Assay C: In Vivo Intragastric Pressor Assay Response for AII Antagonists
Male Sprague-Dawley rats weighing 225-300 grams were anesthetized with methohexital (30 mg/kg, i.p.) and catheters were implanted into the femoral artery and vein. The catheters were tunneled subcutaneously to exit dorsally, posterior to the head and between the scapulae. The catheters were filled with heparin (1000 units/ml of saline). The rats were returned to their cage and allowed regular rat chow and water ad libitum. After full recovery from surgery (3-4 days), rats were placed in Lucite holders and the arterial line was connected to a pressure transducer. Arterial pressure was recorded on a Gould polygraph (mmHg). Angiotensin II was administered as a 30 ng/kg bolus via the venous catheter delivered in a 50 μl volume with a 0.2 ml saline flush. The pressor response in mm Hg was measured by the differer.-:e from pre-injection arterial pressure to the maximum pressure achieved. The AII injection was repeated every 10 minutes until three consecutive injections yielded responses within 4 mmHg of each other. These three responses were then averaged and represented the control response to AII. The test compound was suspended in 0.5% methylcellulose in water and was administered by gavage. The volume administered was 2 ml/kg body weight. The standard dose was 3 mg/kg. Angiotensin II bolus injections were given at 30, 45, 60, 75, 120, 150, and 180 minutes after gavage. The pressor response to AII was measured at each time point. The rats were then returned to their cage for future testing. A minimum of 3 days was allowed between tests. Percent inhibition was calculated for each time point following gavage by the following formula:
[(Control Response—Response at time point)/Control Response]×100.

For `CCCCc1ncn(Cc2ccc(-c3ccccc3C(=O)O)cc2)n1` [Compound 19], the Kb in test [1] is 6610 nM. In test [2], this compound yielded an IC50 of 12000 nM.
On to `CCCCc1nn(CC(=O)O)c(=O)n1Cc1ccc(-c2ccccc2-c2nn[nH]n2)cc1` [Compound 87], for which the Kb in test [1] is 15.8 nM. The compound further came in with an IC50 in test [2] of 91 nM.
`CCCCc1nc(-c2ccccc2C)n(Cc2ccc(-c3ccccc3-c3nnn[nH]3)nc2)n1` [Compound 262]: in test [1], the Kb was 603 nM. Also, the IC50 in test [2] was 530 nM.
For `CCCCc1nn(CCC(C)CC(C)(C)C)c(=O)n1Cc1ccc(-c2ccccc2-c2nn[nH]n2)cc1` (centres unmarked) [Compound 92], the Kb in test [1] was 12.6 nM. The compound also yielded a 50% inhibitory concentration (IC50) in test [2] of 35 nM.
As for `CCCCc1nc(CCCC)n(Cc2ccc(-c3cnccc3-c3nnn[nH]3)cc2)n1` [Compound 244], in test [1], the Kb is 67.6 nM. Moreover, the 50% inhibitory concentration (IC50) in test [2] was found to be 150 nM.
`CCCCc1nc2c(O)nnc(CCC)c2n1Cc1ccc(-c2ccccc2-c2nn[nH]n2)cc1` [Compound 114]: the Kb in test [1] was 398 nM.
With `CCCCc1nn(CC(=O)c2ccccc2)c(=O)n1Cc1ccc(-c2ccccc2-c2nn[nH]n2)cc1` [Compound 82], the “Assay C Inhibition” value in test [3] (dose cell empty (dose not given)) is reported as 20%. Further, in test [2], the IC50 turned out to be 7.9 nM.
On to `CCCCc1cn(CCC2=CCCC2)c(=O)n1Cc1ccc(-c2ccccc2-c2nnn[nH]2)nc1` [Compound 212], for which, in test [3], the inhibition at 3 mg/kg is 15% and the “Assay C Duration” value stood at 180 min. For the same compound, the IC50 in test [2] is 23 nM.
For `CCCCc1cn(CC(C)(C)C)c(=O)n1Cc1ccc(-c2ccccc2-c2nnn[nH]2)nc1` [Compound 202], in that order: 65%, greater than 180 min and 12 nM.
The like results for `CCCCc1nc(CC(C)(C)C)nn1Cc1ccc(-c2ccccc2-c2nnn[nH]2)nc1` [Compound 249] were, in that order, 20%, greater than 180 min and 4.4 nM.
The like results for `CCCCc1cn(C2CCCCC2)c(=O)n1Cc1ccc(-c2ccccc2-c2nnn[nH]2)nc1` [Compound 205] were, in that order, 40%, greater than 180 min and 20 nM.
Turning to `CCCCc1cn(-c2ccccc2C)c(=O)n1Cc1ccc(-c2ccccc2-c2nnn[nH]2)nc1` [Compound 217], in test [3], 3 mg/kg produced 65% inhibition and the “Assay C Duration” value was greater than 180 min. The IC50 in test [2] was determined as 9.4 nM.
The like results for `CCCc1cn(CCC)c(=O)n1Cc1ccc(-c2ccccc2-c2nnn[nH]2)nc1` [Compound 186] were, in that order, 25%, 180 min and 38 nM.
`CCCCc1cn(-c2c(C)cc(C)cc2C)c(=O)n1Cc1ccc(-c2ccccc2-c2nnn[nH]2)nc1` [Compound 232]: in test [3], the inhibition at 3 mg/kg was determined as 70% and the “Assay C Duration” value is greater than 180 min. The IC50 in test [2] was determined as 4.4 nM.
On to `CCCCc1nc(-c2ccccc2Cl)n(Cc2ccc(-c3ccccc3-c3nnn[nH]3)nc2)n1` [Compound 268], for which, in test [3], testing at 3 mg/kg gave an inhibition of 0%. For the same compound, the IC50 in test [2] was found to be 520 nM.
The like results for `CCCCc1nc(CC(C)(C)C)n(Cc2ccc(-c3ccccc3-c3nnn[nH]3)nc2)n1` [Compound 250] were, in that order, 0% and 43 nM.
With `CCCCc1nc2c(O)nncc2n1Cc1ccc(-c2ccccc2-c2nnn[nH]2)cc1` [Compound 116], the Kb in test [1] was 316 nM.
Take `CCCCc1cn(-c2c(OC)cccc2OC)c(=O)n1Cc1ccc(-c2ccccc2-c2nnn[nH]2)nc1` [Compound 230]: in test [3], at 3 mg/kg the inhibition was 25% and the “Assay C Duration” value was greater than 180 min. The compound also yielded an IC50 in test [2] of 2.6 nM.
The like results for `CCCCn1cc(C2CCCCC2)n(Cc2ccc(-c3ccccc3-c3nnn[nH]3)nc2)c1=O` [Compound 191] were, in that order, 10%, 180 min and 81 nM.
`CCCCn1nc(C(O)CCC)nc1Cc1ccc(-c2ccccc2-c2nnn[nH]2)nc1` (centres unmarked) [Compound 159]: in test [3], testing at 3 mg/kg gave an inhibition of 10% and the “Assay C Duration” value was 150 min. In test [2], this compound came in with an IC50 of 21 nM.
For `CCCCc1cn(CCc2ccccc2)c(=O)n1Cc1ccc(-c2ccccc2-c2nnn[nH]2)nc1` [Compound 210], in that order: 15%, 180 min and 3.6 nM.
The like results for `CCCCCc1cn(CCCC)c(=O)n1Cc1ccc(-c2ccccc2-c2nnn[nH]2)nc1` [Compound 190] were, in that order, 10%, 180 min and 10 nM.
The like results for `CCCCn1nc(C(OC)OC)nc1Cc1ccc(-c2ccccc2-c2nnn[nH]2)nc1` [Compound 175] were, in that order, 0%, 0 min and 27 nM.
Take `CCCCc1cn(C(C)C)c(=O)n1Cc1ccc(-c2ccccc2-c2nnn[nH]2)nc1` [Compound 200]: in test [3], 3 mg/kg produced 45% inhibition and the “Assay C Duration” value is greater than 180 min. In test [2], this compound yielded an IC50 of 20 nM.
For the compound `CCCCc1cn(-c2ccccc2Cl)c(=O)n1Cc1ccc(-c2ccccc2-c2nnn[nH]2)nc1` [Compound 216], in test [3], at 3 mg/kg the inhibition was 50% and the “Assay C Duration” value was greater than 180 min. Moreover, the IC50 in test [2] came out at 5.4 nM.
With `CCCCc1nc2cnncc2n1Cc1ccc(-c2ccccc2-c2nnn[nH]2)cc1` [Compound 117], in test [1], the Kb was 316 nM.
Take `CCCCc1cn(CC(CC)CC)c(=O)n1Cc1ccc(-c2ccccc2-c2nnn[nH]2)nc1` [Compound 204]: in test [3], the inhibition at 3 mg/kg turned out to be 75% and the “Assay C Duration” value was greater than 180 min. Further, the 50% inhibitory concentration (IC50) in test [2] turned out to be 16 nM.
The like results for `CCCCc1cn(C(C)(C)C)c(=O)n1Cc1ccc(-c2ccccc2-c2nnn[nH]2)nc1` [Compound 201] were, in that order, 10%, 180 min and 17 nM.
Turning to `CCCCc1cn(CCC(C)(C)C)c(=O)n1Cc1ccc(-c2ccccc2-c2nnn[nH]2)nc1` [Compound 203], in test [3], at 3 mg/kg the inhibition was 50% and the “Assay C Duration” value was greater than 180 min. Further, the concentration for half-maximal inhibition (IC50) in test [2] is 9.2 nM.
For the compound `CCCCCn1cc(CCCC)n(Cc2ccc(-c3ccccc3-c3nnn[nH]3)nc2)c1=O` [Compound 199], in test [3], the inhibition at 3 mg/kg came out at 60% and the “Assay C Duration” value is greater than 180 min. The half-maximal inhibitory concentration (IC50) in test [2] worked out at 10 nM.
As to `CCCCCc1nc(CCCCC)n(Cc2ccc(-c3ccccc3-c3nnn[nH]3)cc2)n1` [Compound 13], in test [1], the Kb was 2 nM.
Turning to `CCCCn1nc(C(=O)N(C)C(C)(C)C)nc1Cc1ccc(-c2ccccc2-c2nnn[nH]2)nc1` [Compound 171], in test [3], testing at 3 mg/kg gave an inhibition of 0% and the “Assay C Duration” value is 0 min. Also, the IC50 in test [2] was found to be 28 nM.
